According to patent US12202835B2, “Substituted aromatic ring-linked dioxinoquinazolines and dioxinoquinolines as kinase inhibitors” (BEIJING SCITECH-MQ PHARMACEUTICALS LIMITED, priority 2018, dated 2025):

Columns and labels:
Assay type in all cases: biochemical
TRKA kinase = TRKA kinase (Homo sapiens (Human), UniProt P04629); assay: Assay of small molecular compounds for inhibiting the activity of TRKA kinase (LANCE TR-FRET)
Procedure, shortened: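 LANCE TR-FRET with ULight-TK peptide; compounds pre-incubated 5 min with TRKA (2× solution 2 nM), then substrate/ATP added (4× mix: 400 nM peptide, 40 μM ATP). Reaction 60 min at room temperature in dark, 1% DMSO final; stopped, detection developed 60 min, signal read.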

MER kinase = MER kinase (Homo sapiens (Human), UniProt Q12866); assay: Assay of small molecular compounds for inhibiting the activity of MER kinase (LANCE TR-FRET)
Procedure, shortened: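 MER kinase preincubated 5 min at RT with compound (11 points, 0.042-2500 nM final), then ULight-poly GT and ATP added (4× stocks 200 nM and 20 μM) for 60 min at RT, 1% DMSO. Phosphorylation detected by LANCE TR-FRET; IC50 from % inhibition versus controls.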

VEGFR-2 kinase = VEGFR-2 kinase (Homo sapiens (Human), UniProt P35968); assay: Assay of small molecular compounds for inhibiting the activity of VEGFR-2 kinase (LANCE TR-FRET); conditions: read-out: VEGFR2 IC50
Procedure, shortened: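 LANCE TR-FRET with human VEGFR-2 (2× stock 0.5 nM) preincubated 30 min with compound (final 2500 to 0.042 nM, 11-point 3-fold), then ULight-JAK-1 (Tyr1023) peptide/ATP added (4× stocks 200 nM/40 μM). Reaction 60 min room temperature, 4% DMSO; IC50 from inhibition-rate curve.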

Sequence of TRKA kinase (P04629 33-796): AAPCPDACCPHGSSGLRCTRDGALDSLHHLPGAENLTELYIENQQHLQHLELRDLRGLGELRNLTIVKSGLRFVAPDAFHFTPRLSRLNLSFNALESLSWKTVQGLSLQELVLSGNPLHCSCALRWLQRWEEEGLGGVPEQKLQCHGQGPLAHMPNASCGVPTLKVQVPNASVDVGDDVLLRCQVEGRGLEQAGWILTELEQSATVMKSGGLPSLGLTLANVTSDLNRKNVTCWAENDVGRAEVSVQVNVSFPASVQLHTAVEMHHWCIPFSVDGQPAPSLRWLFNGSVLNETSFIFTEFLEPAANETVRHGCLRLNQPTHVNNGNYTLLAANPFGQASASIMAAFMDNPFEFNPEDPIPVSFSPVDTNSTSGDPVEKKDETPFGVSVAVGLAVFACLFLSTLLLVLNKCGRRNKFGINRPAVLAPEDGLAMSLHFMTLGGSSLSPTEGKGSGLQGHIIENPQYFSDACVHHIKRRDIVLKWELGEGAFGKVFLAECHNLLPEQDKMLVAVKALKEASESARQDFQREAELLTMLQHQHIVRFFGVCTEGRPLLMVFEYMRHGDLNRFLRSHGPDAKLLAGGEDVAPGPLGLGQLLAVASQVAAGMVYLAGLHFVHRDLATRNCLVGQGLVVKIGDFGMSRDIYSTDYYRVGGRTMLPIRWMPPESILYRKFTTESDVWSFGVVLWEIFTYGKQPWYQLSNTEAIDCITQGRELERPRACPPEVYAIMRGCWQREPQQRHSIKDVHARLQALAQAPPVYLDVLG
Sequence of MER kinase (Q12866 21-999): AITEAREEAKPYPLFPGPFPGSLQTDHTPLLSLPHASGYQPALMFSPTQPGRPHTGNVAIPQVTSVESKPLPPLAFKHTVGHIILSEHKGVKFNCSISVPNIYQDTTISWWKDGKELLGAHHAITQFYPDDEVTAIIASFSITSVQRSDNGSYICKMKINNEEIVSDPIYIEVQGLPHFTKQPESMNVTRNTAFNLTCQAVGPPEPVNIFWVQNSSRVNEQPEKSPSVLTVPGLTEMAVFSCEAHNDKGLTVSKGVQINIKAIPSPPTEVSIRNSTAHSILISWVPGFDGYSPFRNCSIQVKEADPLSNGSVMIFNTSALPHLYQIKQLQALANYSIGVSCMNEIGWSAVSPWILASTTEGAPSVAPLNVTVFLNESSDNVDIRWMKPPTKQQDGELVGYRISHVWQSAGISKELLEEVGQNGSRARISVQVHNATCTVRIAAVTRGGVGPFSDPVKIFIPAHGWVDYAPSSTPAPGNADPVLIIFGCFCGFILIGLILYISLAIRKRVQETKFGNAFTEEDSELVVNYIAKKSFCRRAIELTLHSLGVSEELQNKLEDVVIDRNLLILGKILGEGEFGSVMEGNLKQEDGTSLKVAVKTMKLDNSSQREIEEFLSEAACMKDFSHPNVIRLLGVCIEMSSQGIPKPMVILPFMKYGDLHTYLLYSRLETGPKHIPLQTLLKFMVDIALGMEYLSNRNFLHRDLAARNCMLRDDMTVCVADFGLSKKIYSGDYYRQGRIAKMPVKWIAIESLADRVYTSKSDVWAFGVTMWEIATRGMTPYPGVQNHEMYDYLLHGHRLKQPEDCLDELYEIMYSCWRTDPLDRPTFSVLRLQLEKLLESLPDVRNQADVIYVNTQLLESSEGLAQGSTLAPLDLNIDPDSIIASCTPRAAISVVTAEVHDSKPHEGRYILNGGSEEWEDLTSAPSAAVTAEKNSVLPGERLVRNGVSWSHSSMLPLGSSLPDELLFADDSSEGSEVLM
Sequence of VEGFR-2 kinase (P35968 20-1356): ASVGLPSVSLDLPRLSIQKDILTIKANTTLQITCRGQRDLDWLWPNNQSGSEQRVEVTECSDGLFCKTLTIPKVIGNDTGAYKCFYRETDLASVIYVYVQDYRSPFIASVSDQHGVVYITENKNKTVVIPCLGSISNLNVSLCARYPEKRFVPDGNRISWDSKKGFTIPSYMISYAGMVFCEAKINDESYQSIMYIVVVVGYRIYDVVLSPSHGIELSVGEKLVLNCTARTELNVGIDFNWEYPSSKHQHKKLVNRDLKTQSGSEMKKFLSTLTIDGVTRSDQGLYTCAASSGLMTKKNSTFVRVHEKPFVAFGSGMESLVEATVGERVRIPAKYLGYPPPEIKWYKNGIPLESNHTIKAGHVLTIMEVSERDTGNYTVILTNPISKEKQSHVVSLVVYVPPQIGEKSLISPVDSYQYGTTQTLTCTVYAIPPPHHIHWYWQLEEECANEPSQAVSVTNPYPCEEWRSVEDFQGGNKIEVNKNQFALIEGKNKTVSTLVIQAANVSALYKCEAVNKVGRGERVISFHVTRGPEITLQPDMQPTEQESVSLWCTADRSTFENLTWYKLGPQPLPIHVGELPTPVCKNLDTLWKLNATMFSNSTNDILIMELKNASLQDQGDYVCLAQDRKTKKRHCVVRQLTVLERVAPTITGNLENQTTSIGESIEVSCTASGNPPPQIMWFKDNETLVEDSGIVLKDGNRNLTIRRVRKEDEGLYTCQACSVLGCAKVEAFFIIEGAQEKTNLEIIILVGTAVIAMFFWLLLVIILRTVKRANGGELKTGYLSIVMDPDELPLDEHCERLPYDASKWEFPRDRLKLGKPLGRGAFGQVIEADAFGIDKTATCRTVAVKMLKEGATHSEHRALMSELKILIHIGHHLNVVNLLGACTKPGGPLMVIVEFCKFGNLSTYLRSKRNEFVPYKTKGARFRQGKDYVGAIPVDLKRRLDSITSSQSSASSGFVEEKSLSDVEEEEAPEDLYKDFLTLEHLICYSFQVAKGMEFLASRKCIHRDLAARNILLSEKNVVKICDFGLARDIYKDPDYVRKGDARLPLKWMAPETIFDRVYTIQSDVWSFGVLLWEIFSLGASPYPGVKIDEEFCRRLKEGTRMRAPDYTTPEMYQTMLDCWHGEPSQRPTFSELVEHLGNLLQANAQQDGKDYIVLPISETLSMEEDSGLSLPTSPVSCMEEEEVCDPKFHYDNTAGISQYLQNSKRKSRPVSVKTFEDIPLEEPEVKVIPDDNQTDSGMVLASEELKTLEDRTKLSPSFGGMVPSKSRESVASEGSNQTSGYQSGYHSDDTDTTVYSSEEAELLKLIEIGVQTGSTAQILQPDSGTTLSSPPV

SMILES | IC50 (TRKA kinase) | IC50 (MER kinase) | IC50 (VEGFR-2 kinase)
CC(C)n1cc(C(=O)Nc2ccc(Oc3ccnc4cc(OCCCN(C)C5CCC5)c5c(c34)OCCO5)c(F)c2)c(=O)n(-c2ccc(F)cc2)c1=O [Example 96, N-(3-fluoro-4-((5-(3-((cyclobutyl)(methyl)amino)propoxy)-2,3-dihydro-[1,4]dioxino[2,3-f]quinolin-10-yl)oxy)phenyl)-3-(4-fluorophenyl)-1-isopropyl-2,4-dioxo-1,2,3,4-tetrahydropyrimidine-5-carboxamide] | < 50 nM | ≤ 50 nM | 500 to 5000 nM
COc1cc2nccc(Oc3ccc(NC(=O)c4cn(CCCO)c(=O)n(-c5ccc(F)cc5)c4=O)cc3F)c2c2c1OCCO2 [Example 99, N-(3-fluoro-4-((5-methoxy-2,3-dihydro-[1,4]dioxino[2,3-f]quinolin-10-yl)oxy)phenyl)-3-(4-fluorophenyl)-1-(3-hydroxypropyl)-2,4-dioxo-1,2,3,4-tetrahydropyrimidine-5-carboxamide] | 50 to 500 nM | ≤ 50 nM | 500 to 5000 nM
C=CCn1cc(C(=O)Nc2ccc(Oc3ccnc4cc(OC)c5c(c34)OCCO5)c(F)c2)c(=O)n(-c2ccc(F)cc2)c1=O [Example 100, N-(3-fluoro-4-((5-methoxy-2,3-dihydro-[1,4]dioxino[2,3-f]quinolin-10-yl)oxy)phenyl)-3-(4-fluorophenyl)-1-allyl-2,4-dioxo-1,2,3,4-tetrahydropyrimidine-5-carboxamide] | 50 to 500 nM | ≤ 50 nM | 500 to 5000 nM
COc1cc2nccc(Oc3ccc(NC(=O)c4cn(CCF)c(=O)n(-c5ccc(F)cc5)c4=O)cc3F)c2c2c1OCCO2 [Example 101, N-(3-fluoro-4-((5-methoxy-2,3-dihydro-[1,4]dioxino[2,3-f]quinolin-10-yl)oxy)phenyl)-3-(4-fluorophenyl)-1-(2-fluoroethyl)-2,4-dioxo-1,2,3,4-tetrahydropyrimidine-5-carboxamide] | 50 to 500 nM | ≤ 50 nM | 500 to 5000 nM
COc1cc2nccc(Oc3ccc(NC(=O)c4cn(CC(=O)O)c(=O)n(-c5ccc(F)cc5)c4=O)cc3F)c2c2c1OCCO2 [Example 104, 2-(5-((3-fluoro-4-((5-methoxy-2,3-dihydro-[1,4]dioxino[2,3-f]quinolin-10-yl)oxy)phenyl)carbamoyl)-3-(4-fluorophenyl)-2,4-dioxo-3,4-dihydropyrimidin-1(2H)-yl)acetic acid] | < 50 nM | ≤ 50 nM | > 5000 nM
CCOc1ccn(-c2ccc(F)cc2)c(=O)c1C(=O)Nc1ccc(Oc2ccnc3cc(OCC4(N)CC4)c4c(c23)OCCO4)c(F)c1 [Example 105, N-(4-((5-((1-aminocyclopropyl)methoxy)-2,3-dihydro-[1,4]dioxino[2,3-f]quinolin-10-yl)oxy)-3-fluorophenyl)-4-ethoxy-1-(4-fluorophenyl)-2-oxo-1,2-dihydropyridine-3-carboxamide] | < 50 nM | ≤ 50 nM | 50 to 500 nM
CCOc1ccn(-c2ccc(C)cc2)c(=O)c1C(=O)Nc1ccc(Oc2ccnc3cc(OC)c4c(c23)OCCO4)c(F)c1 [Example 112, N-(3-fluoro-4-((5-methoxy-2,3-dihydro-[1,4]dioxino[2,3-f]quinolin-10-yl)oxy)phenyl)-2-oxo-4-ethoxy-1-(4-methylphenyl)-1,2-dihydropyridin-3-carboxamide] | < 50 nM | ≤ 50 nM | 50 to 500 nM
CCOc1ccn(-c2ccc(Cl)cc2)c(=O)c1C(=O)Nc1ccc(Oc2ccnc3cc(OC)c4c(c23)OCCO4)c(F)c1 [Example 113, N-(3-fluoro-4-((5-methoxy-2,3-dihydro-[1,4]dioxino[2,3-f]quinolin-10-yl)oxy)phenyl)-2-oxo-4-ethoxy-1-(4-chlorophenyl)-1,2-dihydropyridin-3-carboxamide] | < 50 nM | ≤ 50 nM | 50 to 500 nM
COc1cc2nccc(Oc3cc(Cl)c(NC(=O)c4cn(C)c(=O)n(-c5ccc(F)cc5)c4=O)cc3F)c2c2c1OCCO2 [Example 116, N-(2-chloro-5-fluoro-4-((5-methoxy-2,3-dihydro-[1,4]dioxino[2,3-f]quinolin-10-yl)oxy)phenyl)-3-(4-fluorophenyl)-1-methyl-2,4-dioxo-1,2,3,4-tetrahydropyrimidine-5-carboxamide] | < 50 nM | ≤ 50 nM | > 5000 nM
CCOc1ccn(Cc2ccccc2)c(=O)c1C(=O)Nc1ccc(Oc2ccnc3cc(OC)c4c(c23)OCCO4)c(F)c1 [Example 117, N-(3-fluoro-4-((5-methoxy-2,3-dihydro-[1,4]dioxino[2,3-f]quinolin-10-yl)oxy)phenyl)-2-oxo-4-ethoxy-1-benzyl-1,2-dihydropyridin-3-carboxamide] | 50 to 500 nM | ≤ 50 nM | 500 to 5000 nM
CCOc1ccn(-c2ccc(F)cc2)c(=O)c1C(=O)Nc1ccc(Oc2ccnc3cc(OCC(C)(C)O)c4c(c23)OCCO4)c(F)c1 [Example 120, N-(3-fluoro-4-((5-(2-hydroxy-2-methylpropoxy)-2,3-dihydro-[1,4]dioxino[2,3-f]quinolin-10-yl)oxy)phenyl)-4-ethoxy-1-(4-fluorophenyl)-2-oxo-1,2-dihydropyridine-3-carboxamide] | < 50 nM | ≤ 50 nM | 50 to 500 nM
Cn1cc(C(=O)Nc2ccc(Oc3ccnc4cc(OCC(C)(C)O)c5c(c34)OCCO5)c(F)c2)c(=O)n(-c2ccc(F)cc2)c1=O [Example 121, N-(3-fluoro-4-((5-(2-hydroxy-2-methylpropoxy)-2,3-dihydro-[1,4]dioxino[2,3-f]quinolin-10-yl)oxy)phenyl)-3-(4-fluorophenyl)-1-methyl-2,4-dioxo-1,2,3,4-tetrahydropyrimidine-5-carboxamide] | 50 to 500 nM | ≤ 50 nM | 500 to 5000 nM
CC(C)n1cc(C(=O)Nc2ccc(Oc3ccnc4cc(OCC(C)(C)O)c5c(c34)OCCO5)c(F)c2)c(=O)n(-c2ccc(F)cc2)c1=O [Example 122, N-(3-fluoro-4-((5-(2-hydroxy-2-methylpropoxy)-2,3-dihydro-[1,4]dioxino[2,3-f]quinolin-10-yl)oxy)phenyl)-3-(4-fluorophenyl)-1-isopropyl-2,4-dioxo-1,2,3,4-tetrahydropyrimidine-5-carboxamide] | < 50 nM | ≤ 50 nM | 500 to 5000 nM

More lines, now with the values ahead:

IC50 (TRKA kinase) | IC50 (MER kinase) | IC50 (VEGFR-2 kinase) | SMILES
< 50 nM | ≤ 50 nM | 500 to 5000 nM | COCCN(C)CCCOc1cc2nccc(Oc3ccc(NC(=O)c4cn(C(C)C)c(=O)n(-c5ccc(F)cc5)c4=O)cc3F)c2c2c1OCCO2 [Example 95, N-(3-fluoro-4-((5-(3-((2-methoxyethyl)(methyl)amino)propoxy)-2,3-dihydro-[1,4]dioxino[2,3-f]quinolin-10-yl)oxy)phenyl)-3-(4-fluorophenyl)-1-isopropyl-2,4-dioxo-1,2,3,4-tetrahydropyrimidine-5-carboxamide]
< 50 nM | ≤ 50 nM | 500 to 5000 nM | CC(C)n1cc(C(=O)Nc2ccc(Oc3ccnc4cc(OCCCN5CCOCC5)c5c(c34)OCCO5)c(Cl)c2)c(=O)n(-c2ccc(F)cc2)c1=O [Example 97, N-(3-chloro-4-((5-(3-morpholinopropoxy)-2,3-dihydro-[1,4]dioxino[2,3-f]quinolin-10-yl)oxy)phenyl)-3-(4-fluorophenyl)-1-isopropyl-2,4-dioxo-1,2,3,4-tetrahydropyrimidine-5-carboxamide]
< 50 nM | ≤ 50 nM | 500 to 5000 nM | Cn1cc(C(=O)Nc2ccc(Oc3ccnc4cc(OCCCN5CCOCC5)c5c(c34)OCCO5)cc2Cl)c(=O)n(-c2ccc(F)cc2)c1=O [Example 98, N-(2-chloro-4-((5-(3-morpholinopropoxy)-2,3-dihydro-[1,4]dioxino[2,3-f]quinolin-10-yl)oxy)phenyl)-3-(4-fluorophenyl)-1-methyl-2,4-dioxo-1,2,3,4-tetrahydropyrimidine-5-carboxamide]
50 to 500 nM | ≤ 50 nM | > 5000 nM | CC(C)n1cc(C(=O)Nc2ccc(Oc3ccnc4cc(OCC5(N)CC5)c5c(c34)OCCO5)c(F)c2)c(=O)n(-c2ccc(F)cc2)c1=O [Example 106, N-(3-fluoro-4-((5-((1-aminocyclopropyl)methoxy)-2,3-dihydro-[1,4]dioxino[2,3-f]quinolin-1 0-yl)oxy)phenyl)-3-(4-fluorophenyl)-1-isopropyl-2,4-dioxo-1,2,3,4-tetrahydropyrimidine-5-carboxamide]
50 to 500 nM | ≤ 50 nM | 50 to 500 nM | CCOc1ccn(-c2cccc(F)c2)c(=O)c1C(=O)Nc1ccc(Oc2ccnc3cc(OC)c4c(c23)OCCO4)c(F)c1 [Example 114, N-(3-fluoro-4-((5-methoxy-2,3-dihydro-[1,4]dioxino[2,3-f]quinolin-10-yl)oxy)phenyl)-2-oxo-4-ethoxy-1-(3-fluorophenyl)-1,2-dihydropyridin-3-carboxamide]
< 50 nM | ≤ 50 nM | 500 to 5000 nM | CCOc1ccn(-c2ccc(F)cc2)c(=O)c1C(=O)Nc1cc(F)c(Oc2ccnc3cc(OC)c4c(c23)OCCO4)cc1Cl [Example 115, N-(2-chloro-5-fluoro-4-((5-methoxy-2,3-dihydro-[1,4]dioxino[2,3-f]quinolin-10-yl)oxy)phenyl)-4-ethoxy-2-oxo-1-(4-fluorophenyl)-1,2-dihydropyridin-3-carboxamide]
